Experiments:
Type in all cases: biochemical
[1] = test system: lipase; test: Lipase activity retention in detergent use solution (4000 ppm, 5 GPG water; p-nitrophenyl valerate, TRIS buffer pH 8.0); settings: base formula, phosphonate at 0.1% elemental phosphorus, at 120º F. or at room temperature (as titled)
How it was run: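 Lipase stability was measured in a detergent use solution under conditions mimicking presoak or manual warewash, with stirring in a water bath. Aliquots were taken over time and flash-frozen. Thawed samples were diluted in TRIS buffer at pH 8.0 and assayed with p-nitrophenyl valerate as substrate on a plate reader. Activity is reported as % retained relative to the time=0 sample.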

[2] = test system: protease; test: Protease activity retention in detergent use solution (4000 ppm, 5 GPG water; peptidyl substrate, glycine buffer pH 9.0); settings: for Relative Protease Enzyme Activity: use solution at 120° F.
How it was run: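 Detergent use solutions at 4000 ppm in 5 GPG water were held at 120° F with stirring and sampled up to 4 h, with aliquots flash-frozen. Activity was read on a peptidyl substrate in glycine buffer pH 9.0 by absorbance against a calibration curve. Retention is % activity relative to the t=0 sample.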

[3] = test system: enzyme (protease, amylase, lipase); test: Overall effects of phosphonates on enzyme activity (Table 3); settings: overall effect of the phosphonate on enzyme activity in the detergent use solution
How it was run: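 Protease, amylase and lipase activity in detergent use solutions with varied phosphonate levels, 4000 ppm in 5 GPG water at 120° F., sampled up to 4 h and frozen at −80° C. before assay. Activity given as % retention relative to t=0 (100%).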

CC(O)(P(=O)(O)O)P(=O)(O)O [HEDP, 1-hydroxy ethylidene-1,1-diphosphonic acid]
Relative Lipase Enzyme Activity ([1]; time 120 min): 13.04% | Relative Lipase Enzyme Activity ([1]; time 150 min): 11.14% | Relative Lipase Enzyme Activity ([1]; time 180 min): 9.12% | Relative Lipase Enzyme Activity ([1]; time 210 min): 7.99% | Relative Lipase Enzyme Activity ([1]; time 240 min): 7.70% | Relative Protease Enzyme Activity ([2]; All Ash formula, phosphonate 0.3 wt-%, time 0 min): 100.00% | Relative Protease Enzyme Activity ([2]; All Ash formula, phosphonate 0.3 wt-%, time 5 min): 8.63% | Relative Protease Enzyme Activity ([2]; All Ash formula, phosphonate 0.3 wt-%, time 10 min): 3.25% | Relative Protease Enzyme Activity ([2]; All Ash formula, phosphonate 0.3 wt-%, time 20 min): 0.61% | Relative Protease Enzyme Activity ([2]; All Ash formula, phosphonate 0.3 wt-%, time 40 min): −1.32% | Relative Protease Enzyme Activity ([2]; All Ash formula, phosphonate 0.3 wt-%, time 60 min): −1.66% | Relative Protease Enzyme Activity ([2]; All Ash formula, phosphonate 0.3 wt-%, time 90 min): −0.97% | Relative Protease Enzyme Activity ([2]; All Ash formula, phosphonate 0.3 wt-%, time 120 min): −1.23% | Relative Protease Enzyme Activity ([2]; All Ash formula, phosphonate 0.3 wt-%, time 150 min): −0.85% | Relative Protease Enzyme Activity ([2]; All Ash formula, phosphonate 0.3 wt-%, time 180 min): −0.93% | Relative Protease Enzyme Activity ([2]; All Ash formula, phosphonate 0.3 wt-%, time 210 min): −0.42% | Relative Protease Enzyme Activity ([2]; All Ash formula, phosphonate 0.3 wt-%, time 240 min): −0.42% | Relative Protease Enzyme Activity ([2]; base formula, phosphonate 0.3 wt-%, time 0 min): 100.00% | Relative Protease Enzyme Activity ([2]; base formula, phosphonate 0.3 wt-%, time 5 min): 52.21% | Relative Protease Enzyme Activity ([2]; base formula, phosphonate 0.3 wt-%, time 10 min): 32.95% | Relative Protease Enzyme Activity ([2]; base formula, phosphonate 0.3 wt-%, time 20 min): 15.91% | Relative Protease Enzyme Activity ([2]; base formula, phosphonate 0.3 wt-%, time 40 min): 8.68% | Relative Protease Enzyme Activity ([2]; base formula, phosphonate 0.3 wt-%, time 60 min): 5.52% | Relative Protease Enzyme Activity ([2]; base formula, phosphonate 0.3 wt-%, time 90 min): 4.10% | Relative Protease Enzyme Activity ([2]; base formula, phosphonate 0.3 wt-%, time 120 min): 3.10% | Relative Protease Enzyme Activity ([2]; base formula, phosphonate 0.3 wt-%, time 150 min): 2.39% | Relative Protease Enzyme Activity ([2]; base formula, phosphonate 0.3 wt-%, time 180 min): 1.65% | Relative Protease Enzyme Activity ([2]; base formula, phosphonate 0.3 wt-%, time 210 min): 1.36% | Relative Protease Enzyme Activity ([2]; base formula, phosphonate 0.3 wt-%, time 240 min): 1.20% | Relative Protease Enzyme Activity ([2]; base formula, phosphonate 0.6 wt-%, time 0 min): 100.00% | Relative Protease Enzyme Activity ([2]; base formula, phosphonate 0.6 wt-%, time 5 min): 69.69% | Relative Protease Enzyme Activity ([2]; base formula, phosphonate 0.6 wt-%, time 10 min): 51.90% | Relative Protease Enzyme Activity ([2]; base formula, phosphonate 0.6 wt-%, time 20 min): 27.67% | Relative Protease Enzyme Activity ([2]; base formula, phosphonate 0.6 wt-%, time 40 min): 12.41% | Relative Protease Enzyme Activity ([2]; base formula, phosphonate 0.6 wt-%, time 60 min): 7.62% | Relative Protease Enzyme Activity ([2]; base formula, phosphonate 0.6 wt-%, time 90 min): 4.70% | Relative Protease Enzyme Activity ([2]; base formula, phosphonate 0.6 wt-%, time 120 min): 2.94% | Relative Protease Enzyme Activity ([2]; base formula, phosphonate 0.6 wt-%, time 150 min): 1.79% | Relative Protease Enzyme Activity ([2]; base formula, phosphonate 0.6 wt-%, time 180 min): 0.92% | Relative Protease Enzyme Activity ([2]; base formula, phosphonate 0.6 wt-%, time 210 min): 0.71% | Relative Protease Enzyme Activity ([2]; base formula, phosphonate 0.6 wt-%, time 240 min): 0.45% | Relative Protease Enzyme Activity ([2]; base formula, phosphonate at 0.1% elemental phosphorus, time 0 min): 100.00% | Relative Protease Enzyme Activity ([2]; base formula, phosphonate at 0.1% elemental phosphorus, time 5 min): 77.74% | Relative Protease Enzyme Activity ([2]; base formula, phosphonate at 0.1% elemental phosphorus, time 10 min): 53.71% | Relative Protease Enzyme Activity ([2]; base formula, phosphonate at 0.1% elemental phosphorus, time 20 min): 23.58% | Relative Protease Enzyme Activity ([2]; base formula, phosphonate at 0.1% elemental phosphorus, time 40 min): 9.12% | Relative Protease Enzyme Activity ([2]; base formula, phosphonate at 0.1% elemental phosphorus, time 60 min): 5.36% | Relative Protease Enzyme Activity ([2]; base formula, phosphonate at 0.1% elemental phosphorus, time 90 min): 3.76% | Relative Protease Enzyme Activity ([2]; base formula, phosphonate at 0.1% elemental phosphorus, time 120 min): 2.44% | Relative Protease Enzyme Activity ([2]; base formula, phosphonate at 0.1% elemental phosphorus, time 150 min): 1.45% | Relative Protease Enzyme Activity ([2]; base formula, phosphonate at 0.1% elemental phosphorus, time 180 min): 0.74% | Relative Protease Enzyme Activity ([2]; base formula, phosphonate at 0.1% elemental phosphorus, time 210 min): 0.64% | Relative Protease Enzyme Activity ([2]; base formula, phosphonate at 0.1% elemental phosphorus, time 240 min): 0.45% | enzyme activity of amine salt of the phosphonate versus non-neutralized phosphonate ([2]; phosphonate neutralized with an amine, such as triethanolamine): much improved enzyme activity | Stability (effects on enzyme activity) [3]: No

Reference: US11807835B2, “Detergent compositions containing a stabilized enzyme by phosphonates” (ECOLAB USA INC., priority 2016, dated 2023)
